# In patent US11180462B2, “Microbiocidal oxadiazole derivatives” (SYNGENTA PARTICIPATIONS AG, priority 2015, dated 2021):
# Test system: Glomerella lagenarium (Colletotrichum lagenarium)
# Experiment: Fungicidal activity against Glomerella lagenarium (Colletotrichum lagenarium) liquid culture / cucumber / preventative (anthracnose)
# Format: cell-based
# Conditions: Colletotrichum orbiculare; 20 ppm in the applied formulation; liquid culture (PDB), growth inhibition measured photometrically after 3 to 4 days; compared to untreated control; read-out: disease control
# Protocol: Mycelia fragments or conidia suspensions of a fungus prepared either freshly from liquid cultures of the fungus or from cryogenic storage, are directly mixed into nutrient broth. DMSO solutions of the test compound (max. 10 mg/ml) are diluted with 0.025% Tween20 by a factor of 50 and 10 μl of this solution is pipetted into a microtiter plate (96-well format). The nutrient broth containing the fungal spores/mycelia fragments is then added to give an end concentration of the tested compound. The test plates are incubated in the dark at 24° C. and 96% relative humidity. The inhibition of fungal growth is determined photometrically after 2 to 7 days, depending on the pathosystem, and percent antifungal activity relative to the untreated check is calculated.
# Fungicidal activity against Glomerella lagenarium (Colletotrichum lagenarium) liquid culture/cucumber/Preventative (Anthracnose)
# Conidia of the fungus from cryogenic storage are directly mixed into nutrient broth (PDB—potato dextrose broth). After placing a (DMSO) solution of test compound into a microtiter plate (96-well format), the nutrient broth containing the fungal spores is added.
# The following compounds at 20 ppm in the applied formulation give at least 80% disease control in this test when compared to untreated control under the same conditions, which show extensive disease development.
row,SMILES,inhibition of growth at 20 ppm
1,"CCCON(Cc1ccc(-c2noc(C(F)(F)F)n2)cc1)C(=O)CCOC [Compound 1.293, 3-methoxy-N-propoxy-N-[[4-[5-(trifluoromethyl)-1,2,4-oxadiazol-3-yl]phenyl]methyl]-propanamide]",≥ 80%
2,"COc1ccccc1C(=O)N(Cc1ccc(-c2noc(C(F)(F)F)n2)cc1)OC [Compound 1.7, N,2-dimethoxy-N-[[4-[5-(trifluoromethyl)-1,2,4-oxadiazol-3-yl]phenyl]methyl]-benzamide]",≥ 80%
3,"CON(C(=O)C1CC1C)C(C)c1ccc(-c2noc(C(F)(F)F)n2)cc1 (centres unmarked) [Compound 1.265, N-methoxy-2-methyl-N-[1-[4-[5-(trifluoromethyl)-1,2,4-oxadiazol-3-yl]phenyl]ethyl]-cyclopropane-carboxamide]",≥ 80%
4,"CON(C(=O)CC1CC1)C(C)c1ccc(-c2noc(C(F)(F)F)n2)cc1 (centres unmarked) [Compound 1.256, 2-cyclopropyl-N-methoxy-N-[1-[4-[5-(trifluoromethyl)-1,2,4-oxadiazol-3-yl]phenyl]ethyl]-acetamide]",≥ 80%
5,"CCCON(Cc1ccc(-c2noc(C(F)(F)F)n2)cc1)C(=O)C(C)C [Compound 1.284, 2-methyl-N-propoxy-N-[[4-[5-(trifluoromethyl)-1,2,4-oxadiazol-3-yl]phenyl]methyl]-propanamide]",≥ 80%
6,"CCCON(Cc1ccc(-c2noc(C(F)(F)F)n2)cc1)C(=O)C1CSC1 [Compound 1.292, N-propoxy-N-[[4-[5-(trifluoromethyl)-1,2,4-oxadiazol-3-yl]pheny1]methyl]-thietane-3-carboxamide]",≥ 80%
7,"CCCON(Cc1ccc(-c2noc(C(F)(F)F)n2)cc1)C(=O)CCC [Compound 1.288, N-propoxy-N-[[4-[5-(trifluoromethyl)-1,2,4-oxadiazol-3-yl]phenyl]methyl]-butanamide]",≥ 80%
8,"CCCON(Cc1ccc(-c2noc(C(F)(F)F)n2)cc1)C(=O)C=CC(C)=O [Compound 1.310, 4-oxo-N-propoxy-N-[[4-[5-(trifluoromethyl)-1,2,4-oxadiazol-3-yl]phenyl]methyl]-pent-2-enamide]",≥ 80%
9,"CCCON(Cc1ccc(-c2noc(C(F)(F)F)n2)cc1)C(=O)C1(F)CC1 [Compound 1.307, 1-fluoro-N-propoxy-N-[[4-[5-(trifluoromethyl)-1,2,4-oxadiazol-3-yl]phenyl]methyl]-cyclopropane-carboxamide]",≥ 80%
10,"O=C(C1CCCO1)N(Cc1ccc(-c2noc(C(F)(F)F)n2)cc1)OCc1ccc(Cl)cc1 (centres unmarked) [Compound 1.557, N-[(4-chlorophenyl)-methoxy]-N-[[4-[5-(trifluoromethyl)-1,2,4-oxadiazol-3-yl]phenyl]methyl]-tetrahydrofuran-2-carboxamide]",≥ 80%
11,"CON(C(=O)CC(F)(F)F)C(C)c1ccc(-c2noc(C(F)(F)F)n2)cc1 (centres unmarked) [Compound 1.277, 3,3,3-trifluoro-N-methoxy-N-[1-[4-[5-(trifluoromethyl)-1,2,4-oxadiazol-3-yl]phenyl]ethyl]-propanamide]",≥ 80%
12,"CCC(C)C(=O)N(Cc1ccc(-c2noc(C(F)(F)F)n2)cc1)C(C)CC (centres unmarked) [Compound 1.394, 2-methyl-N-sec-butyl-N-[[4-[5-(trifluoromethyl)-1,2,4-oxadiazol-3-yl]phenyl]methyl]-butanamide]",≥ 80%
13,"CCCC(C)(C)C(=O)N(Cc1ccc(-c2noc(C(F)(F)F)n2)cc1)C1CC1 [Compound 1.85, N-cyclopropyl-2,2-dimethyl-N-[[4-[5-(trifluoromethyl)-1,2,4-oxadiazol-3-yl]phenyl]methyl]-pentanamide]",≥ 80%
14,"CCCCON(Cc1ccc(-c2noc(C(F)(F)F)n2)cc1)C(=O)C1CC1 [Compound 1.601, N-butoxy-N-[[4-[5-(trifluoromethyl)-1,2,4-oxadiazol-3-yl]phenyl]methyl]-cyclopropane-carboxamide]",≥ 80%
15,"COC(C)C(=O)N(Cc1ccc(-c2noc(C(F)(F)F)n2)cc1)OCC=C(Cl)Cl (centres unmarked) [Compound 1.546, N-(3,3-dichloroallyloxy)-2-methoxy-N-[[4-[5-(trifluoromethyl)-1,2,4-oxadiazol-3-yl]phenyl]methyl]-propanamide]",≥ 80%
16,"C#CCN(Cc1ccc(-c2noc(C(F)(F)F)n2)cc1)C(=O)C1(C)CC1(Cl)Cl (centres unmarked) [Compound 1.174, 2,2-dichloro-1-methyl-N-prop-2-ynyl-N-[[4-[5-(trifluoromethyl)-1,2,4-oxadiazol-3-yl]phenyl]methyl]-cyclopropane-carboxamide]",≥ 80%

row,SMILES,inhibition of growth at 20 ppm
1,"CCCON(Cc1ccc(-c2noc(C(F)(F)F)n2)cc1)C(=O)C1CC1C (centres unmarked) [Compound 1.299, 2-methyl-N-propoxy-N-[[4-[5-(trifluoromethyl)-1,2,4-oxadiazol-3-yl]phenyl]methyl]-cyclopropane-carboxamide]",≥ 80%
2,"CCCCCOC(=O)N(Cc1ccc(-c2noc(C(F)(F)F)n2)cc1)OC [Compound 2.9, pentyl N-methoxy-N-[[4-[5-(trifluoromethyl)-1,2,4-oxadiazol-3-yl]phenyl]methyl]-carbamate]",≥ 80%
3,"CON(Cc1ccc(-c2noc(C(F)(F)F)n2)cc1)C(=O)OC(Cl)C(C)C (centres unmarked) [Compound 2.19, (1-chloro-2-methyl-propyl) N-methoxy-N-[[4-[5-(trifluoromethyl)-1,2,4-oxadiazol-3-yl]phenyl]methyl]-carbamate]",≥ 80%
4,"C#CC(=O)N(OC)C(C)c1ccc(-c2noc(C(F)(F)F)n2)cc1 (centres unmarked) [Compound 1.269, N-methoxy-N-[1-[4-[5-(trifluoromethyl)-1,2,4-oxadiazol-3-yl]phenyl]ethyl]prop-2-ynamide]",≥ 80%
5,"C=CCCC(=O)N(Cc1ccc(-c2noc(C(F)(F)F)n2)cc1)CC1CC1 [Compound 1.208, N-(cyclopropylmethyl)-N-[[4-[5-(trifluoromethyl)-1,2,4-oxadiazol-3-yl]phenyl]methyl]-pent-4-enamide]",≥ 80%
6,"O=C(N(Cc1ccc(-c2noc(C(F)(F)F)n2)cc1)CC1CC1)C1(C(F)(F)F)CC1 [Compound 1.203, N-(cyclopropylmethyl)-1-(trifluoromethyl)-N-[[4-[5-(trifluoromethyl)-1,2,4-oxadiazol-3-yl]phenyl]methyl]-cyclopropane-carboxamide]",≥ 80%
7,"CCC(C)N(Cc1ccc(-c2noc(C(F)(F)F)n2)cc1)C(=O)C1(F)CC1 (centres unmarked) [Compound 1.393, 1-fluoro-N-sec-butyl-N-[[4-[5-(trifluoromethyl)-1,2,4-oxadiazol-3-yl]phenyl]methyl]-cyclopropane-carboxamide]",≥ 80%
8,"CCCON(Cc1ccc(-c2noc(C(F)(F)F)n2)cc1)C(=O)CC [Compound 1.303, N-propoxy-N-[[4-[5-(trifluoromethyl)-1,2,4-oxadiazol-3-yl]phenyl]methyl]-propanamide]",≥ 80%
9,"CCCON(Cc1ccc(-c2noc(C(F)(F)F)n2)cc1)C(=O)CC1CC1 [Compound 1.289, 2-cyclopropyl-N-propoxy-N-[[4-[5-(trifluoromethyl)-1,2,4-oxadiazol-3-yl]phenyl]methyl]-acetamide]",≥ 80%
10,"CCCON(Cc1ccc(-c2noc(C(F)(F)F)n2)cc1)C(=O)C1CC1(F)F (centres unmarked) [Compound 1.286, 2,2-difluoro-N-propoxy-N-[[4-[5-(trifluoromethyl)-1,2,4-oxadiazol-3-yl]phenyl]methyl]-cyclopropane-carboxamide]",≥ 80%
11,"CON(C(=O)CC(C)C)C(C)c1ccc(-c2noc(C(F)(F)F)n2)cc1 (centres unmarked) [Compound 1.261, N-methoxy-3-methyl-N-[1-[4-[5-(trifluoromethyl)-1,2,4-oxadiazol-3-yl]phenyl]ethyl]-butanamide]",≥ 80%
12,"O=C(C1CC1F)N(Cc1ccc(-c2noc(C(F)(F)F)n2)cc1)OCC=C(Cl)Cl (centres unmarked) [Compound 1.545, N-(3,3-dichloroallyloxy)-2-fluoro-N-[[4-[5-(trifluoromethyl)-1,2,4-oxadiazol-3-yl]phenyl]methyl]-cyclopropane-carboxamide]",≥ 80%
13,"CC(C)C(=O)N(Cc1ccc(-c2noc(C(F)(F)F)n2)cc1)OCC=C(Cl)Cl [Compound 1.539, N-(3,3-dichloroallyloxy)-2-methyl-N-[[4-[5-(trifluoromethyl)-1,2,4-oxadiazol-3-yl]phenyl]methyl]-propanamide]",≥ 80%
14,"N#Cc1ccc(CC(=O)N(Cc2ccc(-c3noc(C(F)(F)F)n3)cc2)CC2CC2)cc1 [Compound 1.236, 2-(4-cyanophenyl)-N-(cyclopropylmethyl)-N-[[4-[5-(trifluoromethyl)-1,2,4-oxadiazol-3-yl]phenyl]methyl]-acetamide]",≥ 80%
15,"CC#CC(=O)N(Cc1ccc(-c2noc(C(F)(F)F)n2)cc1)OCCC [Compound 1.282, N-propoxy-N-[[4-[5-(trifluoromethyl)-1,2,4-oxadiazol-3-yl]phenyl]methyl]but-2-ynamide]",≥ 80%
16,"COCC(=O)N(Cc1ccc(-c2noc(C(F)(F)F)n2)cc1)OCc1ccc(Cl)cc1 [Compound 1.551, N-[(4-chlorophenyl)-methoxy]-2-methoxy-N-[[4-[5-(trifluoromethyl)-1,2,4-oxadiazol-3-yl]phenyl]methyl]-acetamide]",≥ 80%
